Data as given in patent US4725683A, “Fluorophenoxyphenoxypropionates and derivatives thereof” (The Dow Chemical Company, priority 1985, dated 1988).

Columns and labels:
Type in all cases: in vivo
Barnyard Grass = experiment: Preemergent activity; conditions: Echinochloa crus-galli, pre-emergence, read-out: Preemergence Control
Procedure, shortened: (§1)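 Test compound was dissolved in acetone at twice the final concentration, then mixed with an equal volume of water containing 0.1% w/w Tween-20. The resulting emulsion was sprayed uniformly at a predetermined rate onto sandy loam seed beds sown with each species. Controls received acetone–Tween-20–water only.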

Crabgrass = experiment: Preemergent activity
Procedure, shortened: as §1

Annual Rye = experiment: Selective postemergence, track sprayer
Method: (§2) Representative compositions of the present invention were evaluated for the postemergence control of species of plants listed in Table A. In these evaluations, pots of the plant species listed in Table A, grown to a height of about 10 cms, were used. Aqueous spray compositions, containing various amounts of 2-[4-(2-fluoro-4-trifluoromethylphenoxy)-phenoxy]propionic acid methy ester, i.e., 125 ppm, 62.5 ppm, 31.25 ppm, 15.6 ppm, 7.8 ppm and 3.9 ppm, respectively, were applied to separate pots. The spray compositions were made by mixing the active ingredient in acetone to 1/2 the final volume, i.e., twice the final concentration. An equal amount of water was added to the active ingredient/acetone mixture wherein the water contained 0.1 percent by weight of TWEEN® 200 surfactant. The application to the plants was made to the point of run-off and was carried out with conventional spraying equipment. Other pots were sprayed with similar compositions containing no toxicant to serve as controls. Thereafter, the pots were maintained under conditions conducive for plant growth. Two weeks after treatment, the pots were examined for plant growth and evaluated on a scale of 0 to 100 where 0 represents no effect and 100 represents complete kill. The results of the examination of the treated pots are set forth below in Table A.
(§3) To further define the selective postemergence herbicidal characteristics of compounds of the present invention, chemicals were applied to additional species of grasses as listed in Table F. Chemicals evaluated were 2-[4-(4-bromo-2-fluorophenoxy)phenoxy]propionic acid methyl ester and its R isomer. Treatment conditions were similar to those described in Example A except that chemicals were delivered through a track sprayer set to deliver the appropriate dosages in 280.6 L/hectare of water containing 0.1% Tween-20 surfactant.

Barnyardgrass = experiment: Selective postemergence, track sprayer
Method: as §2, §3

Blackgrass = experiment: Selective postemergence, track sprayer
Method: as §2, §3

Cheatgrass = experiment: Selective postemergence, track sprayer
Method: as §2, §3

Giant Foxtail = experiment: Selective postemergence, track sprayer
Method: as §2, §3

Goosegrass = experiment: Selective postemergence, track sprayer
Method: as §2, §3

Johnsongrass = experiment: Selective postemergence, track sprayer
Method: as §2, §3

Orchardgrass = experiment: Selective postemergence, track sprayer
Method: as §2, §3

Yellow Foxtail = experiment: Selective postemergence, track sprayer
Method: as §2, §3

## COC(=O)C(C)Oc1ccc(Oc2ccc(Cl)cc2F)cc1 (racemic) [Example 4-Chloro-, 2-[4-(4-chloro-2-fluorophenoxy)phenoxy]propionic acid methyl ester]
Barnyard Grass; 0.07 kgs/hectare
  pest or weed control at 70 g/ha: 40%
Barnyard Grass; 0.14 kgs/hectare
  pest or weed control at 140 g/ha: 98%
Barnyard Grass; 0.28 kgs/hectare
  pest or weed control at 280 g/ha: 98%
Barnyard Grass; 0.56 kgs/hectare
  pest or weed control at 560 g/ha: 100%
Barnyard Grass; 1.12 kgs/hectare
  pest or weed control at 1120 g/ha: 100%
Crabgrass; 0.07 kgs/hectare
  Preemergence Control: 60%
Crabgrass; 0.14 kgs/hectare
  Preemergence Control: 100%
Crabgrass; 0.28 kgs/hectare
  Preemergence Control: 100%
Crabgrass; 0.56 kgs/hectare
  Preemergence Control: 100%
Crabgrass; 1.12 kgs/hectare
  Preemergence Control: 100%

## COC(=O)C(C)Oc1ccc(Oc2ccc(Br)cc2F)cc1 (racemic) [Example 4-Bromo-, 2-[4-(4-bromo-2-fluorophenoxy)phenoxy]propionic acid methyl ester]
Annual Rye; 0.0011 kgs/hectare
  Percent Control: 0%
Annual Rye; 0.0023 kgs/hectare
  Percent Control: 0%
Annual Rye; 0.0045 kgs/hectare
  Percent Control: 0%
Annual Rye; 0.009 kgs/hectare
  Percent Control: 20%
Annual Rye; 0.035 kgs/hectare
  Percent Control: 40%
Annual Rye; 0.07 kgs/hectare
  Percent Control: 100%
Annual Rye; 0.14 kgs/hectare
  Percent Control: 100%
Annual Rye; 0.28 kgs/hectare
  Percent Control: 100%
Annual Rye; 0.56 kgs/hectare
  Percent Control: 100%
Barnyardgrass; 0.0011 kgs/hectare
  Percent Control: 40%
Barnyardgrass; 0.0023 kgs/hectare
  Percent Control: 70%
Barnyardgrass; 0.0045 kgs/hectare
  Percent Control: 100%
Barnyardgrass; 0.009 kgs/hectare
  Percent Control: 100%
Barnyardgrass; 0.035 kgs/hectare
  Percent Control: 100%
Barnyardgrass; 0.07 kgs/hectare
  Percent Control: 100%
Barnyardgrass; 0.14 kgs/hectare
  Percent Control: 100%
Barnyardgrass; 0.28 kgs/hectare
  Percent Control: 100%
Barnyardgrass; 0.56 kgs/hectare
  Percent Control: 100%
Blackgrass; 0.0011 kgs/hectare
  Percent Control: 30%
Blackgrass; 0.0023 kgs/hectare
  Percent Control: 50%
Blackgrass; 0.0045 kgs/hectare
  Percent Control: 50%
Blackgrass; 0.009 kgs/hectare
  Percent Control: 100%
Blackgrass; 0.035 kgs/hectare
  Percent Control: 100%
Blackgrass; 0.07 kgs/hectare
  Percent Control: 100%
Blackgrass; 0.14 kgs/hectare
  Percent Control: 100%
Blackgrass; 0.28 kgs/hectare
  Percent Control: 100%
Blackgrass; 0.56 kgs/hectare
  Percent Control: 100%
Cheatgrass; 0.0011 kgs/hectare
  Percent Control: 0%
Cheatgrass; 0.0023 kgs/hectare
  Percent Control: 0%
Cheatgrass; 0.0045 kgs/hectare
  Percent Control: 0%
Cheatgrass; 0.009 kgs/hectare
  Percent Control: 0%
Cheatgrass; 0.018 kgs/hectare
  Percent Control: 0%
Cheatgrass; 0.035 kgs/hectare
  Percent Control: 0%
Cheatgrass; 0.07 kgs/hectare
  Percent Control: 0%
Cheatgrass; 0.14 kgs/hectare
  Percent Control: 0%
Cheatgrass; 0.28 kgs/hectare
  Percent Control: 0%
Cheatgrass; 0.56 kgs/hectare
  Percent Control: 20%
Giant Foxtail; 0.0011 kgs/hectare
  Percent Control: 100%
Giant Foxtail; 0.0023 kgs/hectare
  Percent Control: 100%
Giant Foxtail; 0.0045 kgs/hectare
  Percent Control: 100%
Giant Foxtail; 0.009 kgs/hectare
  Percent Control: 100%
Giant Foxtail; 0.035 kgs/hectare
  Percent Control: 100%
Giant Foxtail; 0.14 kgs/hectare
  Percent Control: 100%
Giant Foxtail; 0.28 kgs/hectare
  Percent Control: 100%
Giant Foxtail; 0.56 kgs/hectare
  Percent Control: 100%
Goosegrass; 0.0011 kgs/hectare
  Percent Control: 0%
Goosegrass; 0.0023 kgs/hectare
  Percent Control: 0%
Goosegrass; 0.0045 kgs/hectare
  Percent Control: 30%
Goosegrass; 0.009 kgs/hectare
  Percent Control: 20%
Goosegrass; 0.035 kgs/hectare
  Percent Control: 80%
Goosegrass; 0.07 kgs/hectare
  Percent Control: 100%
Goosegrass; 0.14 kgs/hectare
  Percent Control: 100%
Goosegrass; 0.28 kgs/hectare
  Percent Control: 100%
Goosegrass; 0.56 kgs/hectare
  Percent Control: 100%
Johnsongrass; 0.0011 kgs/hectare
  Percent Control: 0%
Johnsongrass; 0.0023 kgs/hectare
  Percent Control: 0%
Johnsongrass; 0.0045 kgs/hectare
  Percent Control: 0%
Johnsongrass; 0.009 kgs/hectare
  Percent Control: 0%
Johnsongrass; 0.035 kgs/hectare
  Percent Control: 0%
Johnsongrass; 0.07 kgs/hectare
  Percent Control: 0%
Johnsongrass; 0.14 kgs/hectare
  Percent Control: 20%
Johnsongrass; 0.28 kgs/hectare
  Percent Control: 30%
Johnsongrass; 0.56 kgs/hectare
  Percent Control: 80%
Orchardgrass; 0.0011 kgs/hectare
  Percent Control: 0%
Orchardgrass; 0.0023 kgs/hectare
  Percent Control: 0%
Orchardgrass; 0.0045 kgs/hectare
  Percent Control: 0%
Orchardgrass; 0.009 kgs/hectare
  Percent Control: 0%
Orchardgrass; 0.035 kgs/hectare
  Percent Control: 0%
Orchardgrass; 0.07 kgs/hectare
  Percent Control: 80%
Orchardgrass; 0.14 kgs/hectare
  Percent Control: 90%
Orchardgrass; 0.28 kgs/hectare
  Percent Control: 90%
Orchardgrass; 0.56 kgs/hectare
  Percent Control: 90%
Yellow Foxtail; 0.0011 kgs/hectare
  Percent Control: 0%
Yellow Foxtail; 0.0023 kgs/hectare
  Percent Control: 0%
Yellow Foxtail; 0.0045 kgs/hectare
  Percent Control: 0%
Yellow Foxtail; 0.009 kgs/hectare
  Percent Control: 40%
Yellow Foxtail; 0.035 kgs/hectare
  Percent Control: 80%
Yellow Foxtail; 0.07 kgs/hectare
  Percent Control: 100%
Yellow Foxtail; 0.14 kgs/hectare
  Percent Control: 100%
Yellow Foxtail; 0.28 kgs/hectare
  Percent Control: 100%
Yellow Foxtail; 0.56 kgs/hectare
  Percent Control: 100%
